Reference: the supplement of paper PMC6045584
± gives the standard deviation of the averaged measurements.

Tests used:
VINORELBINE = compound: CCC1=C[C@@H]2CN(C1)Cc1c([nH]c3ccccc13)[C@@](C(=O)OC)(c1cc3c(cc1OC)N(C)[C@H]1[C@@](O)(C(=O)OC)[C@H](OC(C)=O)[C@]4(CC)C=CCN5CC[C@]31[C@@H]54)C2 [VINORELBINE]; test: surviving fraction relative to DMSO-only wells; higher = less growth inhibition; conditions: exposure time: 5 days
Procedure, shortened: (§1)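 After seeding at 250–500 cells per well in 384-well plates and a 24-hour wait, log-phase tumour cell lines were exposed without interruption for five days to inhibitors at 0.5, 1, 5, 10, 50, 100, 500 and 1000 nM. CellTiter-Glo luminescence was recorded after 10 minutes at room temperature. Viability is reported as surviving fraction, the luminescence normalised to the median of DMSO-only wells.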

ETOPOSIDE = compound: COc1cc([C@@H]2c3cc4c(cc3[C@@H](O[C@@H]3O[C@@H]5CO[C@@H](C)O[C@H]5[C@H](O)[C@H]3O)[C@H]3COC(=O)[C@H]23)OCO4)cc(OC)c1O [ETOPOSIDE]; test: as above; conditions: exposure time: 5 days
Procedure, shortened: as §1

C33A CERVIX
surviving fraction (VINORELBINE; 0.5 nM): 1.02 ± 0.15 | surviving fraction (VINORELBINE; 1 nM): 1.02 ± 0.1 | surviving fraction (VINORELBINE; 5 nM): 1.03 ± 0.11 | surviving fraction (VINORELBINE; 10 nM): 0.78 ± 0.04 | surviving fraction (VINORELBINE; 50 nM): 0.121 ± 0.0098 | surviving fraction (VINORELBINE; 100 nM): 0.102 ± 0.028 | surviving fraction (VINORELBINE; 500 nM): 0.0543 ± 0.026 | surviving fraction (VINORELBINE; 1000 nM): 0.0423 ± 0.0078 | surviving fraction (ETOPOSIDE; 0.5 nM): 0.794 ± 0.11 | surviving fraction (ETOPOSIDE; 1 nM): 0.967 ± 0.064 | surviving fraction (ETOPOSIDE; 5 nM): 0.918 ± 0.016 | surviving fraction (ETOPOSIDE; 10 nM): 1.05 ± 0.071 | surviving fraction (ETOPOSIDE; 50 nM): 0.923 ± 0.045 | surviving fraction (ETOPOSIDE; 100 nM): 0.726 ± 0.024 | surviving fraction (ETOPOSIDE; 500 nM): 0.251 ± 0.027 | surviving fraction (ETOPOSIDE; 1000 nM): 0.155 ± 0.01

CAL72 BONE
surviving fraction (VINORELBINE; 0.5 nM): 1.04 ± 0.036 | surviving fraction (VINORELBINE; 1 nM): 1.05 ± 0.036 | surviving fraction (VINORELBINE; 5 nM): 1 ± 0.024 | surviving fraction (VINORELBINE; 10 nM): 0.9417 ± 0.0083 | surviving fraction (VINORELBINE; 50 nM): 0.43 ± 0.056 | surviving fraction (VINORELBINE; 100 nM): 0.34 ± 0.05 | surviving fraction (VINORELBINE; 500 nM): 0.213 ± 0.018 | surviving fraction (VINORELBINE; 1000 nM): 0.213 ± 0.026 | surviving fraction (ETOPOSIDE; 0.5 nM): 1.05 ± 0.026 | surviving fraction (ETOPOSIDE; 1 nM): 1.05 ± 0.037 | surviving fraction (ETOPOSIDE; 5 nM): 1.06 ± 0.048 | surviving fraction (ETOPOSIDE; 10 nM): 1.05 ± 0.05 | surviving fraction (ETOPOSIDE; 50 nM): 1.07 ± 0.051 | surviving fraction (ETOPOSIDE; 100 nM): 1.07 ± 0.039 | surviving fraction (ETOPOSIDE; 500 nM): 0.684 ± 0.029 | surviving fraction (ETOPOSIDE; 1000 nM): 0.358 ± 0.03

G292 BONE
surviving fraction (VINORELBINE; 0.5 nM): 0.962 ± 0.012 | surviving fraction (VINORELBINE; 1 nM): 1.01 ± 0.045 | surviving fraction (VINORELBINE; 5 nM): 0.704 ± 0.0075 | surviving fraction (VINORELBINE; 10 nM): 0.416 ± 0.013 | surviving fraction (VINORELBINE; 50 nM): 0.221 ± 0.02 | surviving fraction (VINORELBINE; 100 nM): 0.189 ± 0.0081 | surviving fraction (VINORELBINE; 500 nM): 0.144 ± 0.013 | surviving fraction (VINORELBINE; 1000 nM): 0.105 ± 0.011 | surviving fraction (ETOPOSIDE; 0.5 nM): 0.964 ± 0.035 | surviving fraction (ETOPOSIDE; 1 nM): 0.976 ± 0.041 | surviving fraction (ETOPOSIDE; 5 nM): 1 ± 0.087 | surviving fraction (ETOPOSIDE; 10 nM): 0.978 ± 0.06 | surviving fraction (ETOPOSIDE; 50 nM): 0.942 ± 0.02 | surviving fraction (ETOPOSIDE; 100 nM): 0.796 ± 0.014 | surviving fraction (ETOPOSIDE; 500 nM): 0.437 ± 0.019 | surviving fraction (ETOPOSIDE; 1000 nM): 0.352 ± 0.012

HCC1395 BREAST
surviving fraction (VINORELBINE; 0.5 nM): 1.04 ± 0.21 | surviving fraction (VINORELBINE; 1 nM): 1.09 ± 0.16 | surviving fraction (VINORELBINE; 5 nM): 1.13 ± 0.077 | surviving fraction (VINORELBINE; 10 nM): 1.11 ± 0.031 | surviving fraction (VINORELBINE; 50 nM): 0.952 ± 0.083 | surviving fraction (VINORELBINE; 100 nM): 0.727 ± 0.12 | surviving fraction (VINORELBINE; 500 nM): 0.575 ± 0.16 | surviving fraction (VINORELBINE; 1000 nM): 0.467 ± 0.057 | surviving fraction (ETOPOSIDE; 0.5 nM): 0.983 ± 0.081 | surviving fraction (ETOPOSIDE; 1 nM): 0.994 ± 0.1 | surviving fraction (ETOPOSIDE; 5 nM): 1.02 ± 0.12 | surviving fraction (ETOPOSIDE; 10 nM): 1 ± 0.12 | surviving fraction (ETOPOSIDE; 50 nM): 1.06 ± 0.14 | surviving fraction (ETOPOSIDE; 100 nM): 1.04 ± 0.056 | surviving fraction (ETOPOSIDE; 500 nM): 0.937 ± 0.12 | surviving fraction (ETOPOSIDE; 1000 nM): 0.926 ± 0.13

HUO3N1 BONE
surviving fraction (VINORELBINE; 0.5 nM): 1.01 ± 0.032 | surviving fraction (VINORELBINE; 1 nM): 1.02 ± 0.012 | surviving fraction (VINORELBINE; 5 nM): 1.03 ± 0.039 | surviving fraction (VINORELBINE; 10 nM): 0.935 ± 0.017 | surviving fraction (VINORELBINE; 50 nM): 0.308 ± 0.039 | surviving fraction (VINORELBINE; 100 nM): 0.182 ± 0.025 | surviving fraction (VINORELBINE; 500 nM): 0.183 ± 0.0055 | surviving fraction (VINORELBINE; 1000 nM): 0.179 ± 0.018 | surviving fraction (ETOPOSIDE; 0.5 nM): 0.956 ± 0.017 | surviving fraction (ETOPOSIDE; 1 nM): 0.936 ± 0.05 | surviving fraction (ETOPOSIDE; 5 nM): 0.982 ± 0.06 | surviving fraction (ETOPOSIDE; 10 nM): 1.01 ± 0.042 | surviving fraction (ETOPOSIDE; 50 nM): 1.01 ± 0.019 | surviving fraction (ETOPOSIDE; 100 nM): 0.96 ± 0.057 | surviving fraction (ETOPOSIDE; 500 nM): 0.519 ± 0.01 | surviving fraction (ETOPOSIDE; 1000 nM): 0.376 ± 0.012

LNCAP PROSTATE
surviving fraction (VINORELBINE; 0.5 nM): 0.816 ± 0.12 | surviving fraction (VINORELBINE; 1 nM): 0.843 ± 0.12 | surviving fraction (VINORELBINE; 5 nM): 0.667 ± 0.038 | surviving fraction (VINORELBINE; 10 nM): 0.458 ± 0.056 | surviving fraction (VINORELBINE; 50 nM): 0.06 ± 0.0053 | surviving fraction (VINORELBINE; 100 nM): 0.054 ± 0.0044 | surviving fraction (VINORELBINE; 500 nM): 0.058 ± 0.001 | surviving fraction (VINORELBINE; 1000 nM): 0.0507 ± 0.0083 | surviving fraction (ETOPOSIDE; 0.5 nM): 0.86 ± 0.18 | surviving fraction (ETOPOSIDE; 1 nM): 0.951 ± 0.078 | surviving fraction (ETOPOSIDE; 5 nM): 0.868 ± 0.13 | surviving fraction (ETOPOSIDE; 10 nM): 0.94 ± 0.058 | surviving fraction (ETOPOSIDE; 50 nM): 0.9023 ± 0.0057 | surviving fraction (ETOPOSIDE; 100 nM): 0.77 ± 0.051 | surviving fraction (ETOPOSIDE; 500 nM): 0.438 ± 0.046 | surviving fraction (ETOPOSIDE; 1000 nM): 0.301 ± 0.025

SCC003 HEADNECK
surviving fraction (VINORELBINE; 0.5 nM): 1.02 ± 0.16 | surviving fraction (VINORELBINE; 1 nM): 1.08 ± 0.067 | surviving fraction (VINORELBINE; 5 nM): 0.967 ± 0.13 | surviving fraction (VINORELBINE; 10 nM): 0.862 ± 0.064 | surviving fraction (VINORELBINE; 50 nM): 0.271 ± 0.039 | surviving fraction (VINORELBINE; 100 nM): 0.256 ± 0.02 | surviving fraction (VINORELBINE; 500 nM): 0.34 ± 0.045 | surviving fraction (VINORELBINE; 1000 nM): 0.311 ± 0.036 | surviving fraction (ETOPOSIDE; 0.5 nM): 1.04 ± 0.092 | surviving fraction (ETOPOSIDE; 1 nM): 1.05 ± 0.13 | surviving fraction (ETOPOSIDE; 5 nM): 1.11 ± 0.069 | surviving fraction (ETOPOSIDE; 10 nM): 1.07 ± 0.051 | surviving fraction (ETOPOSIDE; 50 nM): 1.1 ± 0.063 | surviving fraction (ETOPOSIDE; 100 nM): 1.08 ± 0.068 | surviving fraction (ETOPOSIDE; 500 nM): 0.849 ± 0.15 | surviving fraction (ETOPOSIDE; 1000 nM): 0.604 ± 0.041
